The results in this text go back to ChEMBL document CHEMBL3813616, “Discovery of novel 7-azaindoles as PDK1 inhibitors” (Bioorg Med Chem Lett, 2016).

As a reminder, the IC50 is the point on the concentration scale where inhibition reaches its midpoint.

Assay [1] has as its target T1, 3-phosphoinositide-dependent protein kinase 1 (Homo sapiens, UniProt O15530).
T1 sequence (O15530 whole entry): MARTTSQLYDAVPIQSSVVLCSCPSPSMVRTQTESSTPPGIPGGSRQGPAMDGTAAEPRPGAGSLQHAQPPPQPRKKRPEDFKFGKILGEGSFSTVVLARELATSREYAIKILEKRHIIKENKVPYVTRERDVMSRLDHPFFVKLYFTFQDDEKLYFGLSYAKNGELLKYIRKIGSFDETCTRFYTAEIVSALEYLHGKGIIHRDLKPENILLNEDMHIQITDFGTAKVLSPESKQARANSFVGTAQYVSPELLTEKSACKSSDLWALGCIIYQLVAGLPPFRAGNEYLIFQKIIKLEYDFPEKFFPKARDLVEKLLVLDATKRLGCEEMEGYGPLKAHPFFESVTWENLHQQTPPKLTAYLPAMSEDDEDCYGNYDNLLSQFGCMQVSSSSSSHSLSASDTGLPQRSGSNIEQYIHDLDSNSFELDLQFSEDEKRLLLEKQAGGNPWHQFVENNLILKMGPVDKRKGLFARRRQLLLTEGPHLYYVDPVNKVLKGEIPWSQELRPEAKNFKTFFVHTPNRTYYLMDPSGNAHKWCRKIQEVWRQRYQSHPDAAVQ
The assay is described as follows: Inhibition of human His6-tagged PDK1 using biotinylated PDKtide as substrate after 60 mins by topcount method.

For assay [2], the target named is T2, Serine/threonine-protein kinase TBK1 (Homo sapiens) (UniProt Q9UHD2).
T2 sequence (whole entry): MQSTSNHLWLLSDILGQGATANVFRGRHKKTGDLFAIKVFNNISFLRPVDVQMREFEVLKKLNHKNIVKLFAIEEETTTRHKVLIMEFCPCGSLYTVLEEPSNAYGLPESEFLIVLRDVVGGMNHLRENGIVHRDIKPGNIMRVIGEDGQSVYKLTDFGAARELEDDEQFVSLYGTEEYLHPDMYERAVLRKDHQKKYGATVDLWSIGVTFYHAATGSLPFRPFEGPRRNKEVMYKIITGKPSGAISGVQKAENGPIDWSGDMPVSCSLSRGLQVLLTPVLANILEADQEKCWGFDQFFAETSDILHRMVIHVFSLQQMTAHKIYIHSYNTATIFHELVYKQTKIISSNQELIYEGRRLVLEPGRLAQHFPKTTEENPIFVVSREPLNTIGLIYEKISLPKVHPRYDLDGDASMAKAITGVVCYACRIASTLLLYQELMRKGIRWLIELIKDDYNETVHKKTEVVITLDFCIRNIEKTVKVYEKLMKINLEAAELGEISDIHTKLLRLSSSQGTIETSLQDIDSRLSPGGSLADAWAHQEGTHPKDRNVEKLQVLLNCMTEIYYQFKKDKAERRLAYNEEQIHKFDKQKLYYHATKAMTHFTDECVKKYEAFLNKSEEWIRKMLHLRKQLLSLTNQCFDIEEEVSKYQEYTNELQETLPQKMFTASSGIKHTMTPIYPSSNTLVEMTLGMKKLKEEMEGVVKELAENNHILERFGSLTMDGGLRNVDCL
The assay is described as follows: Inhibition of human TBK1 (1 to 729 residues) assessed as enzyme activity at 1 uM using 33P ATP by radioactive filter binding assay. More on the design: scale not given: the % may be the effect or the level left.

Assay [3] has as its target RAC-alpha serine/threonine-protein kinase (Homo sapiens) (UniProt P31749). The assay is described as follows: Inhibition of human PKBalpha (118 to 480 residues) assessed as enzyme activity at 1 uM using 33P ATP by radioactive filter binding assay. More on the design: scale not given: the % may be the effect or the level left.
The target of assay [4] is Serine/threonine-protein kinase pim-3 (Homo sapiens) (UniProt Q86V86). The assay is described as follows: Inhibition of human PIM3 (2 to 326 residues) assessed as enzyme activity at 1 uM using 33P ATP by radioactive filter binding assay. Also on record: scale not given: the % may be the effect or the level left.
For assay [5], the target named is T3, Serine/threonine-protein kinase BRSK2 (Homo sapiens) (UniProt Q8IWQ3).
T3 sequence (whole entry): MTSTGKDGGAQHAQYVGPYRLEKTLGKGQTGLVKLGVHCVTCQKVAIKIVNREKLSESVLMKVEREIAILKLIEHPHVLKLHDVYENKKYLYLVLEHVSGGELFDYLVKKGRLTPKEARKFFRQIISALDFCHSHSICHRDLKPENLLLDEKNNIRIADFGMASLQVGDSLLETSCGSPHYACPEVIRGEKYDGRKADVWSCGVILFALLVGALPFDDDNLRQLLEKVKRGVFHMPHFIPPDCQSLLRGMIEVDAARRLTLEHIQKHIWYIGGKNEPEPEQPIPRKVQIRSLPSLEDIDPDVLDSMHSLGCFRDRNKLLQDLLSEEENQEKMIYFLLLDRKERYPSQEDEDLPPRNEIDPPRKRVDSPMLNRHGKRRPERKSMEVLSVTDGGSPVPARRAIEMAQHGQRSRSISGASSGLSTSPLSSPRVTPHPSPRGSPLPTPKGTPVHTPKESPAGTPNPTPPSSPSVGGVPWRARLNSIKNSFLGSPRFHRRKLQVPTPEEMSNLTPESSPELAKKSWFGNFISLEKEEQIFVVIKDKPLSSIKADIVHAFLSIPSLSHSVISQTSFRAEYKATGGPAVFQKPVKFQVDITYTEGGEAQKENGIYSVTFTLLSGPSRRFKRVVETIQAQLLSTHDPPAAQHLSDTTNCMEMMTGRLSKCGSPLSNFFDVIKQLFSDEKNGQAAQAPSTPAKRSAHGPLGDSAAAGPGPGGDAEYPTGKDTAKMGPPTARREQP
The assay is described as follows: Inhibition of human BRSK2 (2 to 674 residues) assessed as enzyme activity at 1 uM using 33P ATP by radioactive filter binding assay. Also on record: scale not given: the % may be the effect or the level left.

Assay [6] concerns the target T4, Dual specificity tyrosine-phosphorylation-regulated kinase 3 (Homo sapiens) (UniProt O43781).
T4 sequence (whole entry): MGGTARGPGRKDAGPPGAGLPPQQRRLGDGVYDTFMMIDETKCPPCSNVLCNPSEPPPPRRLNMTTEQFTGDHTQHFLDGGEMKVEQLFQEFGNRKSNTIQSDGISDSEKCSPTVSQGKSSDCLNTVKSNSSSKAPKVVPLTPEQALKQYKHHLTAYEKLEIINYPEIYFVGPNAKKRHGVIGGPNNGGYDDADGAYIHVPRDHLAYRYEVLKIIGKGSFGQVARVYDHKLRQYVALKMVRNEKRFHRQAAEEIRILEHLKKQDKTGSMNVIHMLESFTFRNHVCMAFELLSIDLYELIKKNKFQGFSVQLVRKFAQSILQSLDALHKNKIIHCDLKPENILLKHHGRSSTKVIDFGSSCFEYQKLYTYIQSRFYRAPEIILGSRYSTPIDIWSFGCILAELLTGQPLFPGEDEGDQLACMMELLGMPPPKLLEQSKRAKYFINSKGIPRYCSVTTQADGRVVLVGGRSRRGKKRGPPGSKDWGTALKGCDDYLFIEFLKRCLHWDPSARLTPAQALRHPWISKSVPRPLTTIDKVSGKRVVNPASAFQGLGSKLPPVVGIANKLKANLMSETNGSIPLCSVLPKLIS
The assay is described as follows: Inhibition of human DYRK3 (1 to 588 residues) assessed as enzyme activity at 1 uM using 33P ATP by radioactive filter binding assay. More on the design: scale not given: the % may be the effect or the level left.

Sequence of RAC-alpha serine/threonine-protein kinase (Homo sapiens) (P31749 whole entry, the tested form may be a part): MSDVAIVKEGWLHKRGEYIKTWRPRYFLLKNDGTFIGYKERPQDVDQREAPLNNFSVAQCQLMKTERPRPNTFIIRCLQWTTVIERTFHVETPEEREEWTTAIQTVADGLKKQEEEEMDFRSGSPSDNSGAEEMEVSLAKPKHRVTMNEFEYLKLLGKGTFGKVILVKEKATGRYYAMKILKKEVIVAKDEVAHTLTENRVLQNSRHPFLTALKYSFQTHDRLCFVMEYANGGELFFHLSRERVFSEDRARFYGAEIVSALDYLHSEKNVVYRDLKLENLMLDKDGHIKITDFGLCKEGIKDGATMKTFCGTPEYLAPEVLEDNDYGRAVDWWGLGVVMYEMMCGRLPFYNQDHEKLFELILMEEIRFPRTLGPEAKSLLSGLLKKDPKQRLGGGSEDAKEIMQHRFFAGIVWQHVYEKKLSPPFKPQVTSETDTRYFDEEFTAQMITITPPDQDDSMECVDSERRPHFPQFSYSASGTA

For `CCCCc1cc(-c2c[nH]c3ncc(-c4cnn(C5CCNCC5)c4)cc23)nc(N)n1`, the IC50 in assay [1] was determined as 84 nM. Moreover, the Activity in assay [2] is -93%; in assay [3] it was -9%; in assay [4], -98%; in assay [5], -65%; in assay [6], -84%.

In turn, `CCc1cc(-c2c[nH]c3ncc(-c4cnn(C5CCNCC5)c4)cc23)nc(N)n1` returned an IC50 in assay [1] of 58 nM. Moreover, the Activity in assay [2] is -65%; in assay [3], -10%; in assay [4], -91%; in assay [5], -65%; in assay [6], -87%.

In the case of `Nc1nccc(-c2c[nH]c3ncccc23)n1` [MERIOLIN 1], in assay [1], the IC50 is 5900 nM. Further, the Activity was -17% in assay [2]; -23% in assay [3]; -61% in assay [4]; -16% in assay [5]; -82% in assay [6].

`CCCCc1cc(-c2c[nH]c3ncccc23)nc(N)n1` showed an IC50 in assay [1] of 1100 nM. The Activity is -37% in assay [2]; -23% in assay [3]; -70% in assay [4]; -12% in assay [5]; -80% in assay [6].
